Data set [1] relates to stress-induced gastric ulcer. Briefly: Protective effect on gastric ulcer induced by restraint plus water-immersion stress in rats. In kind it is in vivo, rat (male Sprague-Dawley). The conditions noted are these: for Ulcer index / inhibition in vivo at 10 mg/kg: 10 mg/kg p.o.; for Ulcer index: mean ± S.E.; for inhibition in vivo at 10 mg/kg: Rattus norvegicus, po. The protocol: 1.1. Protective Effect of Gastric Ulcer Induced by Restraint Plus Water-immersion Stress in Rats
Male Sprague-Dawley rats weighing 250-300 g were used in groups of 5-35. The animals were given the compounds by the oral route after fasting overnight. Immediately, under light ether anesthesia they were placed in a restraint box and immersed in water at 23° C. for 6 or 7 hours. Then the animals were sacrificed, and their stomachs were isolated, inflated with 8 ml of 1% formalin for 10 minutes, opened along the greater curvature, and examined for the presence of gastric erosions. The longest axis of each erosion induced on the glandular section of the stomach was measured, and the sum of the lengths was defined as an ulcer index.

The subject of data set [2] is ethanol-induced gastric ulcer. As to the kind of experiment: Protective effect on ethanol-induced gastric ulcer in rats. In kind it is in vivo, rat (male Sprague-Dawley). Conditions: 10 mg/kg p.o.; for Ulcer index: mean ± S.E.; for inhibition in vivo at 10 mg/kg: Rattus norvegicus, po, 1 h. The method, then: 1.2. Protective Effect on Ethanol-induced Gastric Ulcer in Rats
Male Sprague-Dawley rats weighing 300-400 g were used in groups of 4-36. After fasting overnight, the animals were given orally the compounds. Thirty minutes later they received absolute ethanol (1 ml/body) orally and were sacrificed after 60 minutes. The stomach was removed and examined for erosions. The ulcer index was obtained in the same way as under 1.1.

Data set [3] in a line: in vivo. The conditions noted are these: mouse, mice. The text has this:
The intravenous or intraperitoneal LD50 values of the compounds of this invention and the reference compound (propentofylline) for mice are shown in Table 4.

The next data set relates to peptic ulcer. The conditions noted are these: Ter. Arkh. 57, 52-55, 1985; JP Laid-Open 225317/88; cited from earlier work.
Data set [4] can be described thus: in vivo. The conditions noted are these: mouse, mice, oral, read-out: oral LC50.
The mark [5] stands for this setting: control distilled water (26.0 ± 2.2 mm).
The mark [6] stands for this setting: control distilled water (93.1 ± 8.9 mm).
Where [7] appears, read: iv, i.v., read-out: LD50 (intravenous).
Setting [8] is: control 10% EtOH (32.9 ± 3.3 mm).
[9] abbreviates: control 10% EtOH (78.9 ± 8.5 mm).
The mark [10] stands for this setting: ip, i.p., read-out: LD50 (intraperitoneal).

The structures appear in SMILES notation. Read-outs that look alike come from different tables or passages of the source.

Take `CCn1cnc2c1c(=O)n(CCCCCC(C)(C)O)c(=O)n2CC` [Compound 13, 3,7-diethyl-1-(6-hydroxy-6-methylheptyl)-xanthine]: the Ulcer index in data set [1] (setting [5]) amounted to 5.0 ± 1.0 mm; in data set [2] (setting [6]) it was 15.7 ± 9.4 mm. Further, the inhibition in vivo at 10 mg/kg in data set [1] (vs. control distilled water) was 80.8%; in data set [2] (vs. control distilled water) it was 83.1%. For the same compound, the LD50 in the data set “in vivo [3]” (setting [7]) is over 200 mg/kg.

Consider `C=CCn1cnc2c1c(=O)n(CCCCC(C)(C)O)c(=O)n2CC` [Compound 19, 7-Allyl-3-ethyl-1-(5-hydroxy-5-methylhexyl)-xanthine], for which the Ulcer index in data set [1] (setting [5]) was found to be 10.2 ± 2.4 mm; in data set [2] (setting [6]), 5.2 ± 2.0 mm. In addition, the inhibition in vivo at 10 mg/kg in data set [1] (vs. control distilled water) is 60.8%; in data set [2] (vs. control distilled water), 94.4%. The LD50 in the data set “in vivo [3]” (setting [7]) is over 100 mg/kg.

For the compound `C=CCCn1c(=O)c2c(ncn2CCCCC(C)(C)O)n(CC)c1=O` [Compound 21, 1-(3-Butenyl)-3-ethyl-7-(5-hydroxy-5-methylhexyl)-3-xanthine], the Ulcer index in data set [2] (setting [6]) is listed as 19.2 ± 9.2 mm. The inhibition in vivo at 10 mg/kg in data set [2] (vs. control distilled water) turned out to be 79.4%.

In the case of `CCOCCn1c(=O)c2c(ncn2CCCCC(C)(C)O)n(C)c1=O` [Compound 10], the Ulcer index in data set [1] (setting [5]) was 17.8 ± 3.3 mm. In addition, the inhibition in vivo at 10 mg/kg in data set [1] (vs. control distilled water) was 31.5%. Moreover, the LD50 in “in vivo [3]” (setting [7]) is over 200 mg/kg.

On to `CCCCn1cnc2c1c(=O)n(CCCCC(C)(C)O)c(=O)n2CC` [Compound 17, 7-Butyl-3-ethyl-1-(5-hydroxy-5-methylhexyl)-xanthine], for which the Ulcer index in data set [1] (setting [8]) came to 12.5 ± 3.3 mm; in data set [2] (setting [9]), 13.0 ± 8.3 mm. In addition, the values for the inhibition in vivo at 10 mg/kg in data set [1] (vs. control 10% EtOH) and in data set [2] (listed under control 10% EtOH) were 62% and 83.5%, respectively. In addition, the LD50 in “in vivo [3]” (setting [10]) was over 600 mg/kg.

On to `CCn1cnc2c1c(=O)n(CCCCC(C)(C)O)c(=O)n2CC` [Compound 16, 3,7-Diethyl-1-(5-hydroxy-5-methylhexyl)-xanthine], for which the Ulcer index in data set [1] (setting [5]) amounted to 6.8 ± 1.6 mm; in data set [2] (setting [6]) it was 17.0 ± 7.1 mm. Also, the results for the inhibition in vivo at 10 mg/kg in data set [1] (vs. control distilled water) and in data set [2] (vs. control distilled water) were 73.8% and 81.7%, respectively. In addition, the LD50 in the data set “in vivo [3]” (setting [7]) is over 200 mg/kg.

On to `CCOCn1cnc2c1c(=O)n(CCCCC(C)(C)O)c(=O)n2CC` [Compound 18], for which the values for the Ulcer index in data set [1] (setting [5]) and in data set [2] (setting [6]) were 6.9 ± 2.1 mm and 16.8 ± 7.1 mm, respectively. Moreover, the inhibition in vivo at 10 mg/kg worked out at 73.5% in data set [1] (vs. control distilled water) and 82% in data set [2] (vs. control distilled water). In the data set “in vivo [3]” (setting [7]), the LD50 was over 200 mg/kg.

Take `C=CCn1cnc2c1c(=O)n(CCCCC(C)(C)O)c(=O)n2C` [Compound 20, 7-Allyl-1-(5-hydroxy-5-methylhexyl)-3-methylxanthine]: the Ulcer index in data set [1] (setting [5]) came to 10.6 ± 3.0 mm. Besides, the inhibition in vivo at 10 mg/kg in data set [1] (vs. control distilled water) came to 59.2%. Further, in “in vivo [3]” (setting [7]), the LD50 is over 100 mg/kg.

On to `Cn1cnc2c1c(=O)n(CCCCC(C)(C)O)c(=O)n2C` [Compound 7], for which, in data set [1] (setting [5]), the Ulcer index is given as 15.8 ± 4.4 mm. Further, the inhibition in vivo at 10 mg/kg in data set [1] (vs. control distilled water) worked out at 39.2%. For the same compound, the LD50 in the data set “in vivo [3]” (setting [7]) was over 200 mg/kg.

Regarding `CCCn1cnc2c1c(=O)n(CCCC(C)(O)CC)c(=O)n2C` (stereo not drawn) [Compound 12], the Ulcer index in data set [2] (setting [6]) was 26.1 ± 10.8 mm. The compound further came in with an inhibition in vivo at 10 mg/kg in data set [2] (vs. control distilled water) of 72%. In addition, the LD50 in “in vivo [3]” (setting [10]) lay within 300 to 600 mg/kg.

In the case of `Cn1c(=O)n(CCCCC(C)(C)O)c(=O)c2c1ncn2CCC(O)CO` (stereo not drawn) [Compound 9], the Ulcer index in data set [1] (setting [5]) is recorded as 17.8 ± 3.3 mm. Besides, the inhibition in vivo at 10 mg/kg in data set [1] (vs. control distilled water) worked out at 31.5%. In addition, the LD50 in the data set “in vivo [3]” (setting [7]) was over 100 mg/kg.

Consider `CCn1c(=O)n(CCCCC(C)(C)O)c(=O)c2c1ncn2C` [Compound 2], for which the Ulcer index in data set [1] (setting [5]) was determined as 6.5 ± 1.6 mm; in data set [2] (setting [6]), 23.5 ± 7.0 mm. In addition, the inhibition in vivo at 10 mg/kg in data set [1] (vs. control distilled water) turned out to be 75%; in data set [2] (vs. control distilled water), 74.8%. For the same compound, in data set [1] (stress-induced gastric ulcers), the “times more effective than propentofylline in improving stress-induced gastric ulcers” value came to 2.5 times. The LD50 in the data set “in vivo [3]” (setting [7]) was over 200 mg/kg.

As to `CCCn1cnc2c1c(=O)n(CCCCC(C)=O)c(=O)n2C` [Compound 22, 1-(5'-oxohexyl)-3-methyl-7-propyl xanthine, reference compound], the Ulcer index in data set [1] (setting [5]) was 18.4 ± 3.0 mm; in data set [2] (setting [9]) it was 34.7 ± 8.4 mm. Moreover, the inhibition in vivo at 10 mg/kg is 29.2% in data set [1] (vs. control distilled water) and 62.7% in data set [2] (listed under control 10% EtOH). For the same compound, in the data set on peptic ulcer, the “antiulcer activity (in words, from literature)” value was “superior to that of pentoxifylline”.

As for `CCn1c(=O)n(CCCCCC(C)(C)O)c(=O)c2c1ncn2C` [Compound 4], the Ulcer index in data set [1] (setting [5]) turned out to be 10.6 ± 1.8 mm; in data set [2] (setting [6]), 21.2 ± 8.4 mm. Moreover, the inhibition in vivo at 10 mg/kg in data set [1] (vs. control distilled water) turned out to be 59.2%; in data set [2] (vs. control distilled water), 77.2%. Also, the LD50 in the data set “in vivo [3]” (setting [7]) lay within 100 to 200 mg/kg.

Regarding `CCn1c(=O)n(CCCCCC(C)(C)O)c(=O)c2c1ncn2C(C)C` [Compound 15, 3-Ethyl-1-(6-hydroxy-6-methylheptyl)-7-isopropylxanthine], the figures for the Ulcer index in data set [1] (setting [8]) and in data set [2] (setting [9]) were 6.6 ± 1.6 mm and 4.2 ± 2.2 mm, respectively. Besides, the inhibition in vivo at 10 mg/kg in data set [1] (vs. control 10% EtOH) amounted to 79.9%; in data set [2] (listed under control 10% EtOH) it was 94.7%. Besides, the LD50 in “in vivo [3]” (setting [10]) was over 600 mg/kg.

For the compound `CCCn1cnc2c1c(=O)n(CCCCCC(C)(C)O)c(=O)n2CC` [Compound 14, 3-Ethyl-1-(6-hydroxy-6-methylheptyl)-7-propylxanthine], the Ulcer index is on record as 4.8 ± 1.7 mm in data set [1] (setting [8]) and 3.7 ± 1.1 mm in data set [2] (setting [9]). In addition, the inhibition in vivo at 10 mg/kg in data set [1] (vs. control 10% EtOH) was found to be 85.4%; in data set [2] (listed under control 10% EtOH), 95.3%. For the same compound, the LD50 in the data set “in vivo [3]” (setting [7]) is over 200 mg/kg.

On to `CCCn1cnc2c1c(=O)n(CCCC(C)(C)O)c(=O)n2CC` [Compound 3], for which the Ulcer index in data set [1] (setting [5]) is reported as 12.8 ± 2.5 mm. The inhibition in vivo at 10 mg/kg in data set [1] (vs. control distilled water) worked out at 50.8%. Also, the LD50 in the data set “in vivo [3]” (setting [7]) is over 200 mg/kg.

For `C=CCCn1cnc2c1c(=O)n(CCCCC(C)(C)O)c(=O)n2C` [Compound 6], the Ulcer index in data set [1] (setting [8]) came out at 17.4 ± 4.5 mm. In data set [1] (vs. control 10% EtOH), the inhibition in vivo at 10 mg/kg came to 47.1%. For the same compound, the LD50 in “in vivo [3]” (setting [10]) fell in the range of 150 to 300 mg/kg.

On to `CCCn1cnc2c1c(=O)n(CCCCC(C)(C)O)c(=O)n2CC` [Compound 1], for which the Ulcer index in data set [1] (setting [5]) turned out to be 8.7 ± 1.6 mm; in data set [2] (setting [6]), 12.0 ± 6.9 mm. The figures for the inhibition in vivo at 10 mg/kg in data set [1] (vs. control distilled water) and in data set [2] (vs. control distilled water) were 66.5% and 87.1%, respectively. In addition, in “in vivo [3]” (setting [7]), the LD50 is 100 to 200 mg/kg.

On to `Cn1c(=O)n(CCCCC(C)(C)O)c(=O)c2[nH]cnc21` [Compound 5], for which, in data set [1] (setting [5]), the Ulcer index amounted to 7.5 ± 2.0 mm. Besides, the inhibition in vivo at 10 mg/kg in data set [1] (vs. control distilled water) stood at 71.2%. Further, the LD50 in the data set “in vivo [3]” (setting [7]) is over 200 mg/kg; in “in vivo [4]”, over 2500 mg/kg.

With `CCCn1c(=O)c2c(ncn2CCCCC(C)(C)O)n(C)c1=O` [Compound 8], the Ulcer index in data set [1] (setting [5]) was 12.1 ± 2.9 mm. Further, the inhibition in vivo at 10 mg/kg in data set [1] (vs. control distilled water) was 53.5%. Also, in “in vivo [3]” (setting [7]), the LD50 is 100 to 200 mg/kg.

As for `CCCn1cnc2c1c(=O)n(CCCCCC(C)(C)O)c(=O)n2C` [Compound 11], in data set [1] (setting [5]), the Ulcer index is 16.0 ± 3.8 mm. In addition, in data set [1] (vs. control distilled water), the inhibition in vivo at 10 mg/kg amounted to 38.5%. The LD50 in the data set “in vivo [3]” (setting [10]) was in the range of 150 to 300 mg/kg.

For `CC(=O)CCCCn1c(=O)c2c(ncn2C)n(C)c1=O` [pentoxifylline], in the data set with peptic ulcer, the “antiulcer activity (in words, from literature)” value was “antiulcer effects”.

As usually defined, the inhibition in vivo is the percentage by which the read-out fell short of the control.
